Experimental data reported in patent US9827312B2, “Method for carrying therapeutic substances into cells” (MAGFORCE AG, priority 2005, dated 2017).

Tests used:
[1] = tested on: BT20 (breast carcinoma) cells; assay: Efficacy of cefamandole/nanoparticle mixture in vitro, BT20 (Example 2); assay type: cell-based, human; details: 72 hrs incubation, cefamandole 0.016 mg/ml in medium, 136 μl MFL AS M01
Description: (§1) The experiments in vitro were carried out with the cell lines BT20 (breast carcinoma) and WiDr (colon carcinoma). The tumor cells were taken from tumor tissue of a patient and cultivated as described in DE 199 12 798 C1. 2×10^6 cells, respectively, were prepared in a 75 cm^3 cell culture bottle with 25 ml of cell culture medium (RPMI+10% FBS+1.2 ml of pyruvate for WiDr cells, or respectively BME+10% FBS+pyruvate+5 ml of non-essential amino acids+5 ml glutamine for BT20 cells) for testing the efficacy of the cefamandole/nanoparticle mixture. 136 μl of magnetic fluid MFL AS M01 (iron oxide nanoparticle coated with polycondensed N-(2-aminoethyl)-3-(trimethoxysilyl)propylamine, manufacturer: MagForce Nanotechnologies GmbH, Berlin, Germany) (cFe=2 mol/l) and 390 μl of cefamandole solution (stock solution 1 mg/ml in 0.9% NaCl) were added to said cell suspension.
(§2) After 72 hrs, 30.5% of the BT20 cells and 24% of the WiDr cells had died. Neither cefamandole in the selected concentration, nor the nanoparticle alone, are capable of causing cell death (0% of dead cells). Only the combination of cefamandole and nanoparticles leads to said significant damage of the tumor cells which is due to the transfer of cefamandole into the cells.

tumor cells (in vitro) = assay: Destruction of tumor cells in vitro by cefamandole alone; assay type: cell-based; details: cefamandole without nanoparticles
Description: Cefamandole (CAS No 30034-03-8) is used to combat bacterial infections. […] This substance's potential to combat cancer cells, however, is to be considered to be rather low. […] It is, however, possible to drastically increase the efficacy of cefamandole in the treatment of tumor cells by the simultaneous application of nanoparticles.

[2] = tested on: WiDr (colon carcinoma) cells; assay: Efficacy of cefamandole/nanoparticle mixture in vitro, WiDr (Example 2); assay type: cell-based, human; details: 72 hrs incubation, cefamandole 0.016 mg/ml in medium, 136 μl MFL AS M01
Description: as §1, §2

[3] = tested on: colon carcinoma cell line WiDr; assay: Increase in the activity of cytostatics with nanoparticles (Table 1), WiDr; assay type: cell-based, human; details: procedure of example 2
Description: as §1
(§3) Corresponding to the experiment procedure according to example 2, the following […] were tested in vitro with the active ingredients listed in table 1: a) glioblastoma human cell line RUSIRS 1; b) breast carcinoma cell lines BT20; c) colon carcinoma cell line WiDR; d) bronchial carcinoma cells NSCLC, e) rectal carcinoma cells and f) prostate carcinoma cell line DU 145.
(§4) In all cases, an increased activity of the cytostatic could be observed. The increase in activity is indicated in parentheses after the respective cytostatic, wherein (+) means an increase of about 5% to 80% and (++) means an increase of 80% to 500%.

rectal carcinoma cells = assay: Increase in the activity of cytostatics with nanoparticles (Table 1), rectal carcinoma; assay type: cell-based; details: procedure of example 2
Description: as §1, §3, §4

[4] = tested on: breast carcinoma cell lines BT20; assay: Increase in the activity of cytostatics with nanoparticles (Table 1), BT20; assay type: cell-based, human; details: procedure of example 2
Description: as §1, §3, §4

[5] = tested on: glioblastoma human cell line RUSIRS1; assay: Increase in the activity of cytostatics with nanoparticles (Table 1), RUSIRS1; assay type: cell-based; details: procedure of example 2
Description: as §1, §3, §4

[6] = tested on: prostate carcinoma cell line DU 145; assay: Increase in the activity of cytostatics with nanoparticles (Table 1), DU 145; assay type: cell-based; details: procedure of example 2
Description: as §1, §3, §4

[7] = tested on: bronchial carcinoma cells NSCLC; assay: Increase in the activity of cytostatics with nanoparticles (Table 1), NSCLC; assay type: cell-based; details: procedure of example 2
Description: as §1, §3, §4

neuroglioma cell line H4 = assay: Increase in the activity of cytostatics with nanoparticles (Table 1), H4; assay type: cell-based; details: procedure of example 2
Description: as §1, §3, §4

Row | Structure (SMILES) | dead cells [1] [%] | concentration in the cell culture medium needed for destruction of tumor cells (tumor cells (in vitro)) [mg/mL] | dead cells [2] [%] | increase in the activity of cytostatics [3] | increase in the activity of cytostatics (rectal carcinoma cells) | increase in the activity of cytostatics [4] | increase in the activity of cytostatics [5] | increase in the activity of cytostatics [6] | increase in the activity of cytostatics [7] | increase in the activity of cytostatics (neuroglioma cell line H4)
1 | Cn1nnnc1SCC1=C(C(=O)O)N2C(=O)[C@@H](NC(=O)[C@H](O)c3ccccc3)[C@H]2SC1 [cefamandole, Cefamandole] | 0 | ≥ 0.5 | 0 | – | – | – | – | – | – | –
2 | CC[C@]1(O)C[C@H]2CN(CCc3c([nH]c4ccccc34)[C@@](C(=O)OC)(c3cc4c(cc3OC)N(C=O)[C@H]3[C@@](O)(C(=O)OC)[C@H](OC(C)=O)[C@]5(CC)C=CCN6CC[C@]43[C@@H]65)C2)C1 [vincristine] | – | – | – | (+) ((+) means an increase of about 5% to 80%) | (++) ((++) means an increase of 80% to 500%) | (++) ((++) means an increase of 80% to 500%) | (+) ((+) means an increase of about 5% to 80%) | (+) ((+) means an increase of about 5% to 80%) | (++) ((++) means an increase of 80% to 500%) | (+) ((+) means an increase of about 5% to 80%)
